Data on two molecules can be found in patent publication USRE48253E1, “Methotrexate adjuvants to reduce toxicity and methods for using the same” (Tosk, Inc., priority 2008, dated 2020).

One data set relates to Drosophila melanogaster. Description: Fly Study I: protection from MTX-induced lethality. Type of data set: in vivo. The method, then:
In this study, Drosophila melanogaster eggs (50 eggs per vial) were treated with either 0.005 mg TK-112690+0.4 mg MTX (Group 1), 0.01 mg TK-112690+0.4 mg MTX (Group 2), 0.04 mg TK-112690+0.4 mg MTX (Group 3), 0.1 mg TK-112690+0.4 mg MTX (Group 4), 0.4 mg MTX alone (Group 5) or saline blank (Group 6). Two vials of eggs for each dose group were evaluated for viability (viable flies plus pupae).
The efficacy of cancer chemotherapy can be improved if agents are available to reduce the adverse events associated with treatment with cytotoxic agents. To this end, Drosophila melanogaster (commonly know as the fruit fly) is an ideal organism to screen chemical compounds for such side-effect-reducing agents. This study is aimed at finding a dose of a 2,2′-anhydropyrimidine test article that protects against MTX-induced lethality in insects.
Increasing amounts of a 2,2′-anhydropyrimidine test article (typically 0.03 to 0.1 mg) are mixed in an aqueous solution with 0.3 (or 0.4) mg MTX. Four milliliters (mL) of a 2,2′-anhydropyrimidine test article+MTX solutions are added to an appropriate amount of instant fly medium. Fruit fly eggs are added to a 2,2′-anhydropyrimidine test article+MTX treated medium and incubated for up to 31 days. After the 31 day incubation, each assay is scored by the number of mature fly and pupae per vial.
The assays are set up in clear sterile polystyrene narrow diameter vials from Applied Scientific (Hampton, N.H.). Vials are stored in trays and incubated in a darkened 25° C. incubator.
Reagents and materials used are: 50 mg/mL MTX in H2O (pH 8), 20 mg/mL of the 2,2′-anhydropyrimidine test article in H2O, water, sterile polystyrene narrow diameter vials from Applied Scientific, Instant Drosophila Food Medium, Oregon-R Drosophila melanogaster, 25° C. incubator, and 15 mL polystyrene conical tubes
Each assay is performed in a separate fly vial. […] Pre-measured amounts of instant drosophila medium are added to each assay to achieve optimal hydration level. […] Assays are scored by the number of dead pupae or adult flies per vial.

The next data set has as its system C57Bl/6 female mice. The data set is described as follows: Mouse Study II: MTX-induced loss of mucosal permeability (plasma iodixanol). Type of data set: in vivo. The conditions noted are these: day 7. The method, then: C57Bl/6 female mice (n=7) were treated intraperitoneal (ip) with 100 mg/kg MTX on days 2, 3 and 4 with and without 60 mg/kg TK-112690 (ip) three hours before, and after, MTX injections. On day 7, mucosal barrier injury was estimated by measuring plasma concentrations of orally administered iodixanol determined by HPLC using UV detection (Boxplots with minimum and maximum values (black lines). Orally administered iodixanol is not absorbed absent an increase in mucosal permeability. Group 1=saline control, Group 2=MTX and Group 3=MTX+TK-112690.
The aim of this study was to evaluate the ability of a representative a 2,2′-anhydropyrimidine test article to mitigate MTX-induced loss of mucosal permeability. C57Bl/6 female mice (n=7) were treated (ip) with 100 mg/kg MTX on days 2, 3 and 4 with and without 60 mg/kg TK-112690 (ip) three hours before, and after, MTX injections. On day 7, mucosal barrier injury was estimated by measuring plasma concentrations of orally administered iodixanol determined by HPLC using UV detection. Orally administered iodixanol is not absorbed absent an increase in mucosal permeability.

Another data set concerns C57BL/6 mice. Description: Mouse Study III: MTX-induced infection measured as WBC counts. The data set is classed as in vivo. The conditions noted are these: Day 11. The method, then:
C57BL/6 mice (n=10/dose group), treated i.p. 50 mg/kg MTX on Day 1, 2, 3, 4, 6 and 8 along with 60 mg/kg TK-1126901.p. 3 hr±MTX followed by single daily doses TK-112690 on days not treated with MTX. On Day 11, the animals were sacrificed and hematology performed on the resulting blood. Group 1=saline control, Group 2=MTX control and Group 3=MTX+TK-112690.
Several parameters have been examined in an effort to develop a model to confirm the protection from mucositis observed in the LPS/MTX assay. On examination of complete blood counts (CBCs), consistently elevated levels of white blood cell counts (WBCs) are observed when mice are treated with MTX (FIG. 4). This increase is not observed in animals that are also treated with TK-112690 (FIG. 4). […] LPS is a large molecule on the outer membrane of Gram negative bacteria. Tissues exposed to LPS express pro-inflammatory cytokines such as TNF-α and […]. Increases in these cytokines due to exposure of tissues to LPS generate an immune response which, in turn, increases WBCs.
For the study whose data are presented in FIG. 4, C57BL/6 mice (n=10/dose group) were treated i.p. with 50 mg/kg MTX on Day 1, 2, 3, 4, 6 and 8 along with 60 mg/kg TK-1126901.p. 3 hr±MTX followed by single daily doses TK-112690 on days not treated with MTX. On Day 11, the animals were bled and hematology performed on the resulting blood samples. […]

Another data set concerns CCRF-CEM human tumors. The data set is described as follows: Mouse Study IV: xenograft with CCRF-CEM implants. The data set is classed as in vivo, SCID mice. The method, then: In this study, n=10 SCID mice per dose group were treated with CCRF-CEM human tumors and the tumors allowed to grow to a size of approximately 100 mg. Then the animals were treated by intraperitoneal (ip) injection with either control 20% DMSO/80% PBS (1×/day)×5 days (Group 1), MTX 7.5 mg/kg/injection (1×/day)×5 days (Group 2) or MTX 7.5 mg/kg/inj. (1×/day)×5 days+TK-112690 30 mg/kg/inj.±3 hrs (group 3). The Figure provides tumor sizes in each of the 3 groups on Day 27 of the study.
A xenograft study was performed to analyze the effect of TK-112690. administration on the in vivo efficacy of MTX against a human cancer. Human CCRF-CEM (T-ALL) cells were implanted subcutaneously into SCID mice. Tumor volumes were recorded on a regular basis, and once tumors had become established, treatment was given. […] All treatments were given ip, and TK-112690 was give 3 hours prior to and 3 hours after MTX administration.

`CN(Cc1cnc2nc(N)nc(N)c2n1)c1ccc(C(=O)N[C@@H](CCC(=O)O)C(=O)O)cc1` [MTX, N-[4-[[(2,4-diamino-6-pteridinyl)methyl]methylamino]benzoyl]-L-glutamic acid, reference compound]: the “effect of MTX on lethality in the flies” value in the data set on Drosophila melanogaster (0.4 mg MTX alone vs saline) is “highly significant”. In addition, in the data set on C57Bl/6 female mice (100 mg/kg MTX ip on Days 2, 3 and 4), the “mucosal barrier injury (plasma concentration of orally administered iodixanol)” value is given as “experienced mucosal barrier injury”. Also, the “systemic WBC” value in the data set with C57BL/6 mice (50 mg/kg MTX ip Day 1, 2, 3, 4, 6 and 8) was “increases systemic WBC”. Besides, the “tumor volume day 27, treatment vs saline” value in the data set with CCRF-CEM human tumors (MTX 7.5 mg/kg/injection ip (1×/day)×5 days) is on record as “significantly different”.

On to `Cc1cn2c(nc1=O)O[C@H]1[C@H](O)[C@@H](CO)O[C@H]12` [TK-112690, 2,2′-anhydro-5-methyluridine], for which, in the data set with Drosophila melanogaster (with MTX 0.4 mg, TK-112690 0.005 to 0.1 mg), the “protection against MTX-induced lethality in the Fly model” value is “highly significant”. Also, the “protection from MTX-induced mucosal barrier injury (plasma concentration of orally administered iodixanol)” value in the data set on C57Bl/6 female mice (60 mg/kg ip three hours before and after MTX 100 mg/kg, days 2, 3, 4) was “protected mice from MTX-induced mucosal barrier injury”. Also, the “protection from MTX-induced mucositis measured as WBC counts” value with C57BL/6 mice (60 mg/kg ip with MTX 50 mg/kg) was “protects from MTX-induced mucositis”. Besides, the “tumor volume day 27, MTX+TK-112690 vs MTX” value in the data set on CCRF-CEM human tumors (TK-112690 30 mg/kg ip 3 hours prior to and after MTX 7.5 mg/kg) is on record as “not significantly different”.
